Consider three compounds from patent US20200345633A1, “Pharmaceutical Compositions for Controlling and/or Reducing the Progression of Myopia” (Brien Holden Vision Institute Limited, priority 2017, published 2020).

Series [1] concerns myopia. The following applies: oral administration, young myopic children, one year; cited from earlier work.
Series [2] deals with myopia. Particulars: cited from earlier work.
The subject of a further series is primate eyes. As to the kind of experiment: Choroidal thickness via Ocular Coherence Tomography (OCT) after eye drops in primate eyes. The following applies: atropine at 0.1 wt. % concentration; data not shown.
In another series the test system is human eye. Particulars: concentration of 1 wt. %; cited from earlier work.
Another series concerns accommodation. The following applies: systemic intake; cited from earlier work.

Structures are written as SMILES. Read-outs that look alike come from different tables or passages of the source.

Protocol for primate eyes: As outlined in FIG. 1, in this experiment, the baseline choroidal thickness of primate 656 was measured via Ocular Coherence Tomography (OCT) in both eyes at baseline 1 (B1) and was repeated 2 weeks later (B2). Beginning on Day 1 (five days after the second baseline measurement), a single drop of 0.1 wt. % atropine monotherapy was instilled in the right eye only once per day for 2 days. On Day 3, a choroidal thickness measurement via OCT was then conducted for both eyes and another drop of 0.1 wt. % atropine monotherapy was instilled in the right eye only and the choroidal thickness measured again in both eyes. […] On Day 20, the choroidal thickness of both eyes was measured using OCT, another drop of 1.4 wt. % caffeine monotherapy was instilled in the left eye only, and the choroidal thickness was then measured again in both eyes 20 minutes later. […] On Day 37, the choroidal thickness of both eyes was measured via OCT, another drop of the 0.1 wt. % atropine/1.4 wt. % caffeine combination therapy was instilled in the right eye only, and the choroidal thickness was then measured again in both eyes 20 minutes later. Following the final measurement on Day 37, no drops were instilled for over 2 weeks for a Recovery Period, after which the choroidal thickness of both eyes was again measured on Day 57. […]

Consider `Cn1cnc2[nH]c(=O)[nH]c(=O)c21` [7-methylxanthine], for which, in the series on myopia [1], the axial eye growth result is “retards axial eye growth”, the progression of myopia result is “slowing of the progression of myopia” and the side effects entry was “without significant side effects”.

Regarding `CN1[C@@H]2CC[C@H]1C[C@@H](OC(=O)C(CO)c1ccccc1)C2` (stereo partly drawn) [atropine], in the series on myopia [2] (0.01 wt. %), the “effect on accommodative amplitude” value is listed as “not significant” and the pupil size increase entry was “minimal”. Moreover, the adverse effects result in the series on myopia [2] (concentrations of 1% and 0.5%) is “significant short term adverse effects”. Further, the progression of myopia result in the series on myopia [2] (initially used in concentrations of approximately 1%) is listed as “slow the progression of myopia”. Moreover, the axial length elongation result in the series with myopia [2] (low dose, 0.01 wt %) was “not effective in reducing axial length elongation”. In addition, in the series with myopia [2] (low-concentration topical, 0.01 wt. %), the side effects entry is on record as “not induce side effects”. The adverse effects entry in the series on primate eyes is “adverse effects result”.

As for `Cn1c(=O)c2c(ncn2C)n(C)c1=O` [caffeine], the “safety of topical use” value with human eye is listed as “safely been used topically”. Further, in the series on accommodation, the accommodation result is given as “enhances accommodation”.
